For one test, the target named is rat CB1 (rCB1) (Rattus norvegicus, UniProt P20272). The class given is binding.
A further test concerns the target mouse CB2 (mCB2) (Mus musculus, UniProt P47936). As to the kind of experiment: Radioligand binding, displacement of [3H]CP-55,940 from mouse spleen membranes. The note with it: for lower affinity for CB2 compared to 6b: mCB2 Ki relative to 6b. For orientation: In a radioligand displacement assay an active substance lowers the binding of a labelled ligand.
Test [1] concerns rats. Put plainly: Antinociception, tail-flick procedure over 6 hours after injection. Particulars: rat.
The target in another test is rCB1 receptor (Rattus norvegicus, UniProt P20272). The test is classed as cell-based.
Sequence of rCB1 receptor (P20272 whole entry): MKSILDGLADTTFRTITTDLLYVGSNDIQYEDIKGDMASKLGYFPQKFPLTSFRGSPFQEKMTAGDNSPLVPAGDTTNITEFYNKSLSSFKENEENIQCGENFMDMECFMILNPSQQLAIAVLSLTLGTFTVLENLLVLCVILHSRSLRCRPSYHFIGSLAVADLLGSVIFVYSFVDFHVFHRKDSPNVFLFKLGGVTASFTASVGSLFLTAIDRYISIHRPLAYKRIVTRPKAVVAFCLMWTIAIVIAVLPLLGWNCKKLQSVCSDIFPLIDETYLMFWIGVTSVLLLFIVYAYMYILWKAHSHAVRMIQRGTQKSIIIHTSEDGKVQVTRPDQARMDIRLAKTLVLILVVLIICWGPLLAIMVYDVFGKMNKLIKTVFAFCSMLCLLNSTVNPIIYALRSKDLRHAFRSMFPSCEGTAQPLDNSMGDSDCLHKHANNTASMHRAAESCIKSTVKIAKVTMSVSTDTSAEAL
In test [2] the test system is rats. As to the kind of experiment: Hypothermia test, core body temperature over 6 hours after injection. The class given is in vivo. The note with it: rat, 0.1 mg/kg s.c.
[3] abbreviates: six-atom versus seven-atom ω-bromo side chain.

Sequence of rat CB1 (rCB1) (P20272 whole entry): as above
Sequence of mouse CB2 (mCB2) (P47936 whole entry): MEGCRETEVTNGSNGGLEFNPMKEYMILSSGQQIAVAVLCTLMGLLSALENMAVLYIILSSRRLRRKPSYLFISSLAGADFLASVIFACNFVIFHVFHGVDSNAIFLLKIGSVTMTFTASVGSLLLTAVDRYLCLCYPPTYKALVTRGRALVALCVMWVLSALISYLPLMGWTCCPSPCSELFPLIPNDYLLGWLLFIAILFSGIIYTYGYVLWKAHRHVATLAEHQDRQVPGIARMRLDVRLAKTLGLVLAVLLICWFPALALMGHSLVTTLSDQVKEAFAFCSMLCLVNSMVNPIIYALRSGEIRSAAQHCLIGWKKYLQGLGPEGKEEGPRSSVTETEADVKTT

In the case of `CC1(C)Oc2cc(C3(CCCCBr)CCCC3)cc(O)c2[C@@H]2CC(=O)CC[C@H]21` [15a, (6aR,10aR)-3-[1-(4-Bromobutyl)cyclopentyl]-6,6a,7,8,10,10a-hexahydro-1-hydroxy-6,6-dimethyl-9H-dibenzo[b,d]pyran-9-one], the “reduction in affinity for CB1” value at rat CB1 (rCB1) (setting [3]) is 13 fold. Also, at mouse CB2 (mCB2) (setting [3]), the “reduction in affinity for CB2” value came out at 5 fold.

In the case of `CN1CC[C@]23c4c5ccc(O)c4O[C@H]2[C@@H](O)C=C[C@H]3[C@H]1C5` [morphine, reference compound], in the test on rats [1] (s.c., tail-flick), the “time after injection by which antinociceptive effects were decreasing” value is 3 h and the “time of peak antinociceptive effects after injection” value fell in the range of 30 to 120 min. In addition, the “antinociceptive effects lower than 7e-β” value with rats [1] (tail-flick, relative to 7e-β) is reported as “approximately 100 fold”.

With `CCCC/C=C\C1(c2cc(O)c3c(c2)OC(C)(C)[C@@H]2CCC(=O)C[C@@H]32)CCCC1` [6a, (6aR, 10aR)-3-[1-(1,2-cis-Hexen-1-yl)-cyclopent-1-yl]-6,6a,7,8,10,10a-hexahydro-1-hydroxy-6,6-dimethyl-9H-dibenzo[b,d]pyran-9-one], the “lower affinity for CB2 compared to 6b” value on mouse CB2 (mCB2) is 5 fold.

As to `CCCC/C=C\C1(c2cc(O)c3c(c2)OC(C)(C)[C@@H]2CCC(=O)C[C@@H]32)CCC1` [6d, (6aR, 10aR)-3-[1-(1,2-cis-Hexen-1-yl)-cyclobut-1-yl]-6,6a,7,8,10,10a-hexahydro-1-hydroxy-6,6-dimethyl-9H-dibenzo[b,d]pyran-9-one], on rat CB1 (rCB1) (from Ki rCB1 and mCB2, as stated in text), the “selectivity for CB1 over CB2” value is 11 fold.

The term EC50 denotes the concentration at which the effect is half-maximal. Low readings indicate an effect from little substance, high ones a need for much substance. On to `CCCCCCC1(c2cc(O)c3c(c2)OC(C)(C)[C@@H]2CC[C@@H](O)C[C@@H]32)CCC1` [7e-β, (6aR, 9R, 10aR)-3-(1-Hexyl-cyclobut-1-yl)-6a,7,8,9,10,10a-hexahydro-6,6-dimethyl-6H-dibenzo[b,d]pyran-1,9 diol], for which the EC50 on rCB1 receptor was found to be 1.5 ± 0.3 nM. Also, the “functional efficacy at CB1” value on rCB1 receptor (cAMP assay) is reported as “full agonist”. Besides, the “onset of drug effect (hypothermia) after injection” value with rats [2] was 60 to 90 min. In the test with rats [2], the “time of peak effects (hypothermia) after injection” value is reported as 300 min. Besides, the “reduction of core body temperature” value in the test on rats [2] (from average baseline of 38.48±0.06°C) is “up to 4.2±0.5 °C”. The “antinociception, % of the maximum possible effect” value turned out to be 85.4±5.8% with rats [1] (0.1 mg/kg 7e-β after 30-min pretreatment with 1.0 mg/kg rimonabant (SR141716A)); 48.0±10.9% with rats [1] (0.1 mg/kg 7e-β after 30-min pretreatment with 3.0 mg/kg rimonabant (SR141716A)); 100% with rats [1] (0.1 mg/kg 7e-β alone, different group of animals). In addition, the “doses with significant antinociceptive effects” value in the test with rats [1] (s.c., tail-flick) was in the range of 0.01 to 0.3 mg/kg. Moreover, in the test with rats [1] (s.c., tail-flick), the “onset of the antinociceptive effects after injection” value fell in the range of 60 to 120 min. Also, the “time course of antinociceptive effects” value in the test on rats [1] (s.c., tail-flick, 6 hour test period) was “generally increased over the 6 hour test period”.

As to `CCCCCCC1(c2cc(O)c3c(c2)OC(C)(C)[C@@H]2CCC(=O)C[C@@H]32)SCCS1` [6c, (6aR, 10aR)-3-(2-Hexyl-1,3-dithiolan-2-yl)-6,6a,7,8,10,10a-hexahydro-1-hydroxy-6,6-dimethyl-9H-dibenzo[b,d]pyran-9-one], the “lower affinity for CB1 compared to 6b” value on rat CB1 (rCB1) (rCB1 Ki relative to 6b) worked out at 4 fold. In addition, the “lower affinity for CB2 compared to 6b” value on mouse CB2 (mCB2) worked out at 44 fold.

Source of the values: publication PMC3650853 (Journal of medicinal chemistry, 2010).
